Data: patent publication US20230183239A1, “ECTONUCLEOTIDE PYROPHOSPHATASE-PHOSPHODIESTERASE 1 (ENPP-1) INHIBITORS AND USES THEREOF” (AbbVie Inc., priority 2017, published 2023)
pKi: −log10 of the molar value.

The compounds below were run against T1, ENPP1 (Homo sapiens, UniProt P22413) (assay: Indirect quantitation of 2',3'-cGAMP hydrolysis (AMP-Glo Assay kit)). Conditions: cGAMP substrate; Ki from IC50 by Cheng-Prusoff; read-out: ENPP1 Inhibition -cGAMP: Ki.
T1 sequence (P22413 1-925): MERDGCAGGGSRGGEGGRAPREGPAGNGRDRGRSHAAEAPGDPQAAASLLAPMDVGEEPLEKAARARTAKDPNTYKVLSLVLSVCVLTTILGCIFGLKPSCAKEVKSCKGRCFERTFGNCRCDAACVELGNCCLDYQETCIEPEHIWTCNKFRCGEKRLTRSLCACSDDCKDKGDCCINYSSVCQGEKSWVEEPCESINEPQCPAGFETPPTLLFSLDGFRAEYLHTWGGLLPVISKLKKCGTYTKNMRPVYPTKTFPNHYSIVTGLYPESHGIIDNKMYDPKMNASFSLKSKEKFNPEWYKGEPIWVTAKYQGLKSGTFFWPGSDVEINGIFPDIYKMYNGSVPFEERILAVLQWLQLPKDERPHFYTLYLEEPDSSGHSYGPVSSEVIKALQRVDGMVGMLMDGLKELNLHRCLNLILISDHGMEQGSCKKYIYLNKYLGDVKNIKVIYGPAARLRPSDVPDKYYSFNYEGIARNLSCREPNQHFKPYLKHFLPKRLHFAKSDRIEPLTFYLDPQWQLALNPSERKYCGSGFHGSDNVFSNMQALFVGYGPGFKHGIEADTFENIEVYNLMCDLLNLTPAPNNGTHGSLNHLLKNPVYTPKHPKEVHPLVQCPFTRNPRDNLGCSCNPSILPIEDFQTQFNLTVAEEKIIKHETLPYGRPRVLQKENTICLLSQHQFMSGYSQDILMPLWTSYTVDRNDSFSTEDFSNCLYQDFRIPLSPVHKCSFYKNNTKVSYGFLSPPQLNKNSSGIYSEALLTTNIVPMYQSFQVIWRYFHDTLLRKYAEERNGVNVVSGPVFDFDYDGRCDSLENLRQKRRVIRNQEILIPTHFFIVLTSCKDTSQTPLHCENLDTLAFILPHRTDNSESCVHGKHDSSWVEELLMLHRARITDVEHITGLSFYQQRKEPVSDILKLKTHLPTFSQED
Type: biochemical

Row | SMILES | pKi
1 | COc1ccc(NC(=O)C2CCC(CNS(N)(=O)=O)CC2)cc1OC (stereo not shown) [Example 133, N-(3,4-dimethoxyphenyl)-4-((sulfamoylamino)methyl)cyclohe xane-1-carboxamide] | < 6.00
2 | COc1ccc2c(Oc3cc(F)c(NS(N)(=O)=O)cc3F)ccnc2c1 [Example 79, N-(2,5-difluoro-4-((7-methoxyquinolin-4-yl)oxy)phenyl)sulfamide] | > 7.00
3 | COc1cc2nccc(NC(C)c3ccc(NS(N)(=O)=O)cc3)c2cc1OC (stereo not shown) [Example 181, N-(4-(1-((6,7-dimethoxyquinolin-4-yl)amino)ethyl)phenyl)sulfamide] | < 6.00
4 | COc1cc2nccc(Oc3ccc(NS(N)(=O)=O)nc3)c2cc1OC [Example 176, N-(5-((6,7-dimethoxyquinolin-4-yl)oxy)pyridin-2-yl)sulfamide] | < 6.00
5 | COc1cc2cnn(-c3ccc(CNS(N)(=O)=O)cc3)c2cc1OC [Example 166, N-(4-(5,6-dimethoxy-1H-indazol-1-yl)benzyl)sulfamide] | 6.00 to 7.00
6 | COc1cc2ncnc(N3CCN(C(=O)CN)CC3)c2cc1OC [Example 119, 2-amino-1-(4-(6,7-dimethoxyquinazolin-4-yl)piperazin-1-yl)ethan-1-one] | < 6.00
7 | COc1cc2nccc(N3CCC(CCNS(=O)(=O)NCC(F)(F)F)CC3)c2cc1OC [Example 177, 2-(1-(6,7-dimethoxyquinolin-4-yl)piperidin-4-yl)ethan-1-amino(N-trifluoroethyl) sulfonamide] | < 6.00
8 | COc1cc(NC(C)=O)c(C(=O)N2CCC(CCNS(N)(=O)=O)CC2)cc1OC [Example 44, N-(4,5-dimethoxy-2-(4-(2-(sulfamoylamino)ethyl)piperidine-1-carbonyl)phenyl)acetamide] | < 6.00
9 | COc1ccc(S(=O)(=O)N2CCN(CCNS(N)(=O)=O)CC2)cc1OC [Example 152, N-(2-(4-((3,4-dimethoxyphenyl)sulfonyl)piperazin-1-yl)ethyl)sulfamide] | < 6.00

The remaining lines, values ahead:

Row | pKi | SMILES
10 | < 6.00 | NS(=O)(=O)NCCC1CCN(c2ncnc3ccc(OC(F)(F)F)cc23)CC1 [Example 194, N-(2-(1-(6-(trifluoromethoxy)quinazolin-4-yl)piperidin-4-yl)ethyl)sulfamide]
11 | < 6.00 | COc1cc2ncnc(-c3ccc(S(N)(=O)=O)cc3)c2cc1OC [Example 333, 4-(6,7-dimethoxyquinazolin-4-yl)benzenesulfonamide]
12 | < 6.00 | COc1cc2cnn(-c3ccc(CCNS(N)(=O)=O)cc3)c2cc1OC [Example 210, N-(4-(5,6-dimethoxy-1H-indazol-1-yl)phenethyl)sulfamide]
13 | < 6.00 | NS(=O)(=O)NCCC1CCN(c2ccnc3cc4c(cc23)OCO4)CC1 [Example 215, N-(2-(1-([1,3]dioxolo[4,5-g]quinolin-8-yl)piperidin-4-yl)ethyl)sulfamide]
14 | < 6.00 | NS(=O)(=O)Nc1ccc(Oc2ccnc3[nH]ccc23)cc1 [Example 321, N-(4-((1H-pyrrolo[2,3-b]pyridin-4-yl)oxy)phenyl)sulfamide]
15 | 6.00 to 7.00 | COc1ccc2c(Oc3ccc(N(Cc4ccccc4)S(N)(=O)=O)cc3)ccnc2c1 [Example 309, N-benzyl-N-(4-((7-methoxyquinolin-4-yl)oxy)phenyl)sulfamide]
16 | < 6.00 | CCOc1ccc(S(=O)(=O)N2CCN(C)CC2)cc1-c1ncnc2cc(OC)c(OC)cc12 [Example 337, 4-(2-ethoxy-5-((4-methylpiperazin-1-yl)sulfonyl)phenyl)-6,7-dimethoxyquinazoline]
17 | > 7.00 | COc1ccc2c(Oc3ccc(NS(N)(=O)=O)cc3C)ccnc2c1 [Example 326, N-(4-((7-methoxyquinolin-4-yl)oxy)-3-methylphenyl)sulfamide]
18 | < 6.00 | COc1ccc2c(c1)OCCN2c1ccc(CNS(N)(=O)=O)cc1 [Example 405, N-(4-(7-methoxy-2,3-dihydro-4H-benzo[b][1,4]oxazin-4-yl)benzyl)sulfamide]
19 | > 7.00 | COc1cc2ncnc(NCc3ccc4c(c3)COB4O)c2cc1OC [Example 325, 5-(((6,7-dimethoxyquinazolin-4-yl)amino)methyl)benzo[c][1,2]oxa borol-1(3H)-ol]
